Results published in ChEMBL document CHEMBL1795245, “Pyrazoline based MAO inhibitors: synthesis, biological evaluation and SAR studies” (Bioorg Med Chem Lett, 2011).

Columns and labels:
[1] = target: T1, Amine oxidase [flavin-containing] B (Homo sapiens, UniProt P27338); test: Inhibition of human MAO-B expressed in BTI insect cells using p-tyramine as substrate after 60 mins; format: cell-based
T1 sequence (P27338 whole entry): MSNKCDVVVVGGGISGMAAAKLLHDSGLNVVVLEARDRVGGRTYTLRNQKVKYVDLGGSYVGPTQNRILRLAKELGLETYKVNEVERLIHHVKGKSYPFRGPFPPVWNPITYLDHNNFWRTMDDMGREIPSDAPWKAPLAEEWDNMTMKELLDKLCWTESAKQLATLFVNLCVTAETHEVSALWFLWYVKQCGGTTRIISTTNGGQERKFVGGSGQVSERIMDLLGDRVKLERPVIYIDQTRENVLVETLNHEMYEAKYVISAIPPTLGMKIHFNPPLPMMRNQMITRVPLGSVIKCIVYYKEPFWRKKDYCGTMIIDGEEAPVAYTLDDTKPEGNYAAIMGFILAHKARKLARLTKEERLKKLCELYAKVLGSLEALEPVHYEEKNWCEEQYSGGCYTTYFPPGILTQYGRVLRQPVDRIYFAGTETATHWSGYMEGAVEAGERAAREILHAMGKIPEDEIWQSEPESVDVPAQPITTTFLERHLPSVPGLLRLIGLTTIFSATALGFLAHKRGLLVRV

[2] = target: T2, Amine oxidase [flavin-containing] A (Homo sapiens, UniProt P21397); test: Competitive inhibition of human MAO-A expressed in BTI insect cells using p-tyramine as substrate after 60 mins; settings: 1 h
T2 sequence (P21397 whole entry): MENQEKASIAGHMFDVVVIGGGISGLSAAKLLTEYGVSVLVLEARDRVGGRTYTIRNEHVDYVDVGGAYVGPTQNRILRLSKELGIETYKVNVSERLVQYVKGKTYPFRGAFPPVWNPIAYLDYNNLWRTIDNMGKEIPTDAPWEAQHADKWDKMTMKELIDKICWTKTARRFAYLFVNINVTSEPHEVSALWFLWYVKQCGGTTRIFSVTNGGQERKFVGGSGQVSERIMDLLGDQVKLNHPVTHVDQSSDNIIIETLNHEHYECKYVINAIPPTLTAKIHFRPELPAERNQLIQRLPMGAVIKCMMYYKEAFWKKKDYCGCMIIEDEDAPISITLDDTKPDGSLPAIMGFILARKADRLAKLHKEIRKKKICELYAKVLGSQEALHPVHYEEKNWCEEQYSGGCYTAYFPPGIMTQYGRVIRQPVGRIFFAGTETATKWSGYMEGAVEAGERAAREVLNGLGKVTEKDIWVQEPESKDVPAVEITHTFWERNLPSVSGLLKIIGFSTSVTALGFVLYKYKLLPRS

Homo sapiens = species on record: Homo sapiens; test: Selectivity index, ratio of Ki for human MAO-A to Ki for human MAO-B expressed in BTI insect cells
[3] = target: T2, Amine oxidase [flavin-containing] A; test: Inhibition of human MAO-A expressed in BTI insect cells using p-tyramine as substrate after 60 mins
[4] = target: T2, Amine oxidase [flavin-containing] A; test: Reversible inhibition of human MAO-A expressed in BTI insect cells using p-tyramine as substrate after 60 mins; settings: 1 h

| Structure (SMILES) | Ki [1] [µM] | inhibition (INH) [2] | Ratio Ki (Homo sapiens) | Ki [3] [µM] | inhibition (INH) [4] |
| --- | --- | --- | --- | --- | --- |
| COc1ccccc1NC(=S)N1N=C(c2ccccc2)CC1c1ccc(O)cc1 (centres undefined) | 2130 | Active | 0.001 | 2.15 | Active |
| Cc1ccc(NC(=S)N2N=C(c3ccccc3)CC2c2ccc(O)cc2)cc1 (centres undefined) | 300 | Active | 0.001 | 0.36 | Active |
| Cc1ccc(C2CC(c3ccccc3)=NN2C(=N)N)cc1 (centres undefined) | 4.11 | Active | 0.099 | 0.4 | Active |
| Cc1ccccc1NC(=S)N1N=C(c2ccccc2)CC1c1ccccc1O (centres undefined) | 22 | Active | 0.001 | 0.25 | Active |
| Cc1ccc(C2CC(c3ccccc3)=NN2C(N)=O)cc1 (centres undefined) | 3.2 | Active | 0.153 | 0.49 | Active |
| COc1ccc(NC(=S)N2N=C(c3ccccc3)CC2c2ccccc2O)cc1 (centres undefined) | 60.2 | Active | 0.001 | 0.17 | Active |
| N=C(N)N1N=C(c2ccccc2)CC1c1ccc(Cl)cc1 (centres undefined) | 4.22 | Active | 0.035 | 0.15 | Active |
| O=C(NCCN1CCOCC1)c1ccc(Cl)cc1 [MOCLOBEMIDE] |  | Active |  |  | Active |
| Cc1cccc(NC(=S)N2N=C(c3ccccc3)CC2c2ccccc2O)c1 (centres undefined) | 250 | Active | 0.001 | 0.3 | Active |
| Cc1ccc(NC(=S)N2N=C(c3ccccc3)CC2c2ccccc2O)cc1 (centres undefined) | 69.9 | Active | 0.004 | 0.29 | Active |
| Cc1ccccc1NC(=S)N1N=C(c2ccccc2)CC1c1ccc(O)cc1 (centres undefined) | 309 | Active | 0.001 | 0.31 | Active |
| NC(=S)N1N=C(c2ccccc2)CC1c1ccncc1 (centres undefined) | 4 | Active | 0.114 | 0.456 | Active |
| COc1ccc(C2CC(c3ccccc3)=NN2C(N)=O)cc1 (centres undefined) | 1.88 | Active | 0.521 | 0.98 | Active |
| COc1ccccc1NC(=S)N1N=C(c2ccccc2)CC1c1ccccc1O (centres undefined) | 60 | Active | 0.005 | 0.31 | Active |
| C#CCN(C)[C@H](C)Cc1ccccc1 [SELEGILINE] |  | Active |  |  | Active |
| NC(=O)N1N=C(c2ccccc2)CC1c1ccncc1 (centres undefined) | 4.79 | Active | 1.46 | 7 | Active |
| COc1cccc(NC(=S)N2N=C(c3ccccc3)CC2c2ccccc2O)c1 (centres undefined) | 979 | Active | 0.000102 | 0.1 | Active |
| COc1cccc(NC(=S)N2N=C(c3ccccc3)CC2c2ccc(O)cc2)c1 (centres undefined) | 355 | Active | 0.000988 | 0.35 | Active |
| NC(=O)N1N=C(c2ccccc2)CC1c1ccc(Cl)cc1 (centres undefined) | 1.66 | Active | 0.181 | 0.3 | Active |
| COc1ccc(NC(=S)N2N=C(c3ccccc3)CC2c2ccc(O)cc2)cc1 (centres undefined) | 401 | Active | 0.000226 | 0.09 | Active |
| N=C(N)N1N=C(c2ccccc2)CC1c1ccncc1 (centres undefined) | 4.8 | Active | 0.14 | 0.67 | Active |
| Cc1cccc(NC(=S)N2N=C(c3ccccc3)CC2c2ccc(O)cc2)c1 (centres undefined) | 256 | Active | 0.000509 | 0.13 | Active |
